The values below come from patent publication US20040063611A1, “Pharmaceutical preparation” (Merck Patent GmbH, priority 1998, published 2004).

The nature of data set [1]: In-vitro release Test 1 (phosphate buffer pH 7.4). The class given is physicochemical. Particulars: micronized, particle size between 5 μm and 25 μm (to 95%). The text has this: (§1) In the Federal Register Vol. 62, No. 15, Aug. 14, 1997; page 43535, the Department of Health and Human. Services, Food and Drug Administration, published the facts that the products available on the U.S. market which comprise levothyroxine sodium and are orally administered have stability problems and therefore must be present in an up to […] excess dose and that manufacturers must develop appropriate novel administration forms. The requirements on in-vitro release for levothyroxine Na tablets have furthermore been increased. The monograph draft version of the Pharmacopeial Forum (Pharm. Preview, 1995, 21, 1459-1461) proposes, in addition to the valid Test 1 (phosphate buffer pH 7.4, in 80 minutes >55%) to approve Test 2 (water in 45 minutes >70%).
(§2) With a particle size between 5 μm and 25 μm (to 95%) , however, a release of the active compound takes place in Test 1 to >90% (phosphate buffer) and in Test 2 to >80% (water).

The nature of data set [2]: In-vitro release Test 2 (water). The class given is physicochemical. Particulars: micronized, particle size between 5 μm and 25 μm (to 95%).
Source text: as §1, §2

For data set [3] the following is noted: non-micronized (customarily), cited from earlier work.

For `N[C@@H](Cc1cc(I)c(Oc2cc(I)c(O)c(I)c2)c(I)c1)C(=O)O` [Levothyroxine sodium, levothyroxine sodium], the “release of the active compound in Test 1” value in data set [1] was above 90%. Besides, the “release of the active compound in Test 2” value in data set [2] was above 80%. The solubility in ethanol result in data set [3] (ethanol) is reported as “very sparingly soluble”. In addition, the solubility in water result in data set [3] (water) was “very sparingly soluble”.
